# Source: patent US10364245B2 (CHIESI FARMACEUTICI S.p.A., priority 2017, dated 2019)
# Key:
# p38 alpha = target: T1, p38 alpha (Homo sapiens, UniProt Q16539); assay: P38 alpha enzyme inhibition assay (Alphascreen kinase activity assay); format: biochemical; details: 100 pM p38 alpha, 2 hours preincubation at 25° C., 250 μM ATP, ATF-2 fusion protein; read-out: p38α inhibition
# T1 construct: purchased Invitrogen PV3304
# Method in brief: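 100 pM p38 alpha preincubated 2 h at 25 °C with compound and 0.3 μg/ml ATF-2 fusion substrate (HEPES pH 7.5, MgCl2, 1% DMSO). Reaction started with 250 μM ATP, run 1 h at 25 °C, stopped with EDTA; phospho-ATF2 detected by AlphaScreen luminescence. IC50 from concentration-response curves.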
# [1] = tested on: Peripheral Blood Mononuclear Cells (PBMCs), TNFα release; assay: LPS-stimulated PBMC TNFα release assay; format: cell-based; details: human PBMC, LPS (10 ng/ml), 18 h, compound 1 h before LPS; read-out: LPS-stimulated PBMC TNFα release inhibition
# Method in brief: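 Human PBMCs from healthy donors, serum-starved 3 h, then pre-incubated 1 h at 37 °C with compound in 1% FBS medium before LPS (10 ng/ml) for 18 h. Supernatant TNFα measured by MSD; IC50 from dose-response as % inhibition of control, at least three experiments.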
# T1 sequence (Q16539 whole entry, the tested form may be a part): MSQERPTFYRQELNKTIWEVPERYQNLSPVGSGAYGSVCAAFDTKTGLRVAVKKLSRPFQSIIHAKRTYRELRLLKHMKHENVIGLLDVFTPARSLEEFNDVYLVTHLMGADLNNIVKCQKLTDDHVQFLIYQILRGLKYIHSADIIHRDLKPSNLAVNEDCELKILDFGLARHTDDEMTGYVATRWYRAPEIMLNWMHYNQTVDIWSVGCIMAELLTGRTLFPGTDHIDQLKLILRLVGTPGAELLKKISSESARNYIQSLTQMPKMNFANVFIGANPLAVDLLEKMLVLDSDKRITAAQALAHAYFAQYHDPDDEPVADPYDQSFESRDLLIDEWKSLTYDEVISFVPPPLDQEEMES
SMILES,IC50 (p38 alpha),IC50 [1]
COC(C)(C)c1nnc2ccc(O[C@@H]3CC[C@H](NC(=O)Nc4cc(C(C)(C)C)nc(C(=O)NCCCN5CCOCC5)n4)c4ccccc43)cn12 [Example 124],1 to 10 nM,1 to 5 nM
"COC(C)(C)c1nnc2ccc(O[C@@H]3CC[C@H](NC(=O)Nc4cc(C(C)(C)C)nc(C(=O)NCCN(C)CCO)n4)c4ccccc43)cn12 [Example 125, 4-(tert-butyl)-N-(2-((2-hydroxyethyl)(methyl)-amino)ethyl)-6-(3-((1S,4R)-4-((3-(2-methoxypropan-2-yl)-[1,2,4]triazolo[4,3-a]pyridin-6-yl)oxy)-1,2,3,4-tetrahydronaphthalen-1-yl)ureido)pyrimidine-2-carboxamide]",1 to 10 nM,> 5 nM
"CN1CCC(NC(=O)c2nc(NC(=O)N[C@H]3CC[C@@H](Oc4ccc5nnc(C(C)(C)C)n5c4)c4ccccc43)cc(C(C)(C)C)n2)CC1 [Example 134, 4-(tert-butyl)-6-(3-((1S,4R)-4-((3-(tert-butyl)-[1,2,4]triazolo[4,3-a]pyridin-6-yl)oxy)-1,2,3,4-tetrahydronaphthalen-1-yl)ureido)-N-(1-methylpiperidin-4-yl)pyrimidine-2-carboxamide]",1 to 10 nM,> 5 nM
"COCCN(C)CCNC(=O)c1nc(NC(=O)N[C@H]2CC[C@@H](Oc3ccc4nnc(C5(C)CC5)n4c3)c3ccccc32)cc(C(C)(C)C)n1 [Example 137, 4-(tert-butyl)-N-(2-((2-methoxyethyl)(methyl)-amino)ethyl)-6-(3-((1S,4R)-4-((3-(1-methylcyclopropyl)-[1,2,4]triazolo[4,3-a]pyridin-6-yl)oxy)-1,2,3,4-tetrahydronaphthalen-1-yl)ureido)pyrimidine-2-carboxamide]",1 to 10 nM,> 5 nM
"COC1CN(CCNC(=O)c2nc(NC(=O)N[C@H]3CC[C@@H](Oc4ccc5nnc(C6(C)CC6)n5c4)c4ccccc43)cc(C(C)(C)C)n2)C1 [Example 138, 4-(tert-butyl)-N-(2-(3-methoxyazetidin-1-yl)ethyl)-6-(3-((1S,4R)-4-((3-(1-methylcyclopropyl)-[1,2,4]triazolo[4,3-a]pyridin-6-yl)oxy)-1,2,3,4-tetrahydronaphthalen-1-yl)ureido)pyrimidine-2-carboxamide]",< 1 nM,> 5 nM
"CN1CCN(C(C)(C)c2nnc3ccc(O[C@@H]4CC[C@H](NC(=O)Nc5cc(C(C)(C)C)nc(C(=O)NCCO)n5)c5ccccc54)cn23)CC1 [Example 139, 4-(tert-butyl)-N-(2-hydroxyethyl)-6-(3-((1S,4R)-4-((3-(2-(4-methylpiperazin-1-yl)propan-2-yl)-[1,2,4]triazolo[4,3-a]pyridin-6-yl)oxy)-1,2,3,4-tetrahydronaphthalen-1-yl)ureido)pyrimidine-2-carboxamide]",1 to 10 nM,> 5 nM
"CC(C)(C)c1cc(NC(=O)N[C@H]2CC[C@@H](Oc3ccc4nnc(C(C)(C)C)n4c3)c3ccccc32)nc(C(=O)NCCN2CCC2)n1 [Example 140, N-(2-(azetidin-1-yl)ethyl)-4-(tert-butyl)-6-(3-((1S,4R)-4-((3-(tert-butyl)-[1,2,4]triazolo[4,3-a]pyridin-6-yl)oxy)-1,2,3,4-tetrahydronaphthalen-1-yl)ureido)pyrimidine-2-carboxamide]",< 1 nM,> 5 nM
"CCN(CC)c1nnc2ccc(O[C@@H]3CC[C@H](NC(=O)Nc4cc(C(C)(C)C)nc(C(=O)NCCN(C)C)n4)c4ccccc43)cn12 [Example 142, 4-(tert-butyl)-6-(3-((1S,4R)-4-((3-(diethylamino)-[1,2,4]triazolo[4,3-a]pyridin-6-yl)oxy)-1,2,3,4-tetrahydronaphthalen-1-yl)ureido)-N-(2-(dimethylamino)ethyl)-pyrimidine-2-carboxamide]",< 1 nM,1 to 5 nM
"CCN(CC)c1nnc2ccc(O[C@@H]3CC[C@H](NC(=O)Nc4cc(C(C)(C)C)nc(C(=O)NCC(C)(C)N(C)C)n4)c4ccccc43)cn12 [Example 143, 4-(tert-butyl)-6-(3-((1S,4R)-4-((3-(diethylamino)-[1,2,4]triazolo[4,3-a]pyridin-6-yl)oxy)-1,2,3,4-tetrahydronaphthalen-1-yl)ureido)-N-(2-(dimethylamino)-2-methylpropyl)pyrimidine-2-carboxamide]",< 1 nM,1 to 5 nM
"CN(CCO)CCNC(=O)c1nc(NC(=O)N[C@H]2CC[C@@H](Oc3ccc4nnc(C5(C)CC5)n4c3)c3ccccc32)cc(C(C)(C)C)n1 [Example 145, 4-(tert-butyl)-N-(2-((2-hydroxyethyl)(methyl)-amino)ethyl)-6-(3-((1S,4R)-4-((3-(1-methylcyclopropyl)-[1,2,4]triazolo[4,3-a]pyridin-6-yl)oxy)-1,2,3,4-tetrahydronaphthalen-1-yl)ureido)pyrimidine-2-carboxamide]",< 1 nM,> 5 nM

# More lines, main results first:
IC50 (p38 alpha),SMILES,IC50 [1]
< 1 nM,"COCC(C)(C)c1nnc2ccc(O[C@@H]3CC[C@H](NC(=O)Nc4cc(C(C)(C)C)nc(C(=O)NCCN(C)CCO)n4)c4ccccc43)cn12 [Example 123, 4-(tert-butyl)-N-(2-((2-hydroxyethyl)(methyl)-amino)ethyl)-6-(3-((1S,4R)-4-((3-(1-methoxy-2-methylpropan-2-yl)-[1,2,4]triazolo[4,3-a]pyridin-6-yl)oxy)-1,2,3,4-tetrahydronaphthalen-1-yl)ureido)pyrimidine-2-carboxamide]",1 to 5 nM
< 1 nM,"CN1CC(C(=O)NCc2nc(NC(=O)N[C@H]3CC[C@@H](Oc4ccc5nnc(C(C)(C)C)n5c4)c4ccccc43)cc(C(C)(C)C)n2)C1 [Example 126, N-((4-(tert-butyl)-6-(3-((1S,4R)-4-((3-(tert-butyl)-[1,2,4]triazolo[4,3-a]pyridin-6-yl)oxy)-1,2,3,4-tetrahydronaphthalen-1-yl)ureido)pyrimidin-2-yl)methyl)-1-methylazetidine-3-carboxamide]",> 5 nM
< 1 nM,"CN(C)CCC(=O)NCc1nc(NC(=O)N[C@H]2CC[C@@H](Oc3ccc4nnc(C(C)(C)C)n4c3)c3ccccc32)cc(C(C)(C)C)n1 [Example 127, N-((4-(tert-butyl)-6-(3-((1S,4R)-4-((3-(tert-butyl)-[1,2,4]triazolo[4,3-a]pyridin-6-yl)oxy)-1,2,3,4-tetrahydronaphthalen-1-yl)ureido)pyrimidin-2-yl)methyl)-3-(dimethylamino)-propanamide]",> 5 nM
< 1 nM,"CN1CCN(C(=O)c2nc(NC(=O)N[C@H]3CC[C@@H](Oc4ccc5nnc(C(C)(C)C)n5c4)c4ccccc43)cc(C(C)(C)C)n2)CC1 [Example 128, 1-(6-(tert-butyl)-2-(4-methylpiperazine-1-carbonyl)pyrimidin-4-yl)-3-((1S,4R)-4-((3-(tert-butyl)-[1,2,4]triazolo[4,3-a]pyridin-6-yl)oxy)-1,2,3,4-tetrahydronaphthalen-1-yl)urea]",> 5 nM
< 1 nM,"CN1CC[C@@H](NC(=O)c2nc(NC(=O)N[C@H]3CC[C@@H](Oc4ccc5nnc(C(C)(C)C)n5c4)c4ccccc43)cc(C(C)(C)C)n2)C1 [Example 129, 4-(tert-butyl)-6-(3-((1S,4R)-4-((3-(tert-butyl)-[1,2,4]triazolo[4,3-a]pyridin-6-yl)oxy)-1,2,3,4-tetrahydronaphthalen-1-yl)ureido)-N-((R)-1-methylpyrrolidin-3-yl)pyrimidine-2-carboxamide]",> 5 nM
< 1 nM,"CN(C)CCOCCNC(=O)c1nc(NC(=O)N[C@H]2CC[C@@H](Oc3ccc4nnc(C(C)(C)C)n4c3)c3ccccc32)cc(C(C)(C)C)n1 [Example 130, 4-(tert-butyl)-6-(3-((1S,4R)-4-((3-(tert-butyl)-[1,2,4]triazolo[4,3-a]pyridin-6-yl)oxy)-1,2,3,4-tetrahydronaphthalen-1-yl)ureido)-N-(2-(2-(dimethylamino)ethoxy)-ethyl)pyrimidine-2-carboxamide]",> 5 nM
< 1 nM,"CCC(C)(C)c1nnc2ccc(O[C@@H]3CC[C@H](NC(=O)Nc4cc(C(C)(C)C)nc(C(=O)NCCN5CCOCC5)n4)c4ccccc43)cn12 [Example 131, 4-(tert-butyl)-N-(2-morpholinoethyl)-6-(3-((1S,4R)-4-((3-(tert-pentyl)-[1,2,4]triazolo[4,3-a]pyridin-6-yl)oxy)-1,2,3,4-tetrahydronaphthalen-1-yl)ureido)pyrimidine-2-carboxamide]",1 to 5 nM
< 1 nM,"CCC(C)(C)c1nnc2ccc(O[C@@H]3CC[C@H](NC(=O)Nc4cc(C(C)(C)C)nc(C(=O)NCCCN5CCOCC5)n4)c4ccccc43)cn12 [Example 132, 4-(tert-butyl)-N-(3-morpholinopropyl)-6-(3-((1S,4R)-4-((3-(tert-pentyl)-[1,2,4]triazolo[4,3-a]pyridin-6-yl)oxy)-1,2,3,4-tetrahydronaphthalen-1-yl)ureido)pyrimidine-2-carboxamide]",1 to 5 nM
< 1 nM,"CN1CC[C@H](NC(=O)c2nc(NC(=O)N[C@H]3CC[C@@H](Oc4ccc5nnc(C(C)(C)C)n5c4)c4ccccc43)cc(C(C)(C)C)n2)C1 [Example 136, 4-(tert-butyl)-6-(3-((1S,4R)-4-((3-(tert-butyl)-[1,2,4]triazolo[4,3-a]pyridin-6-yl)oxy)-1,2,3,4-tetrahydronaphthalen-1-yl)ureido)-N-((S)-1-methylpyrrolidin-3-yl)pyrimidine-2-carboxamide]",> 5 nM
